Experimental data reported in US12577341B2, “Copolymer derived from substituted benzopinacol and use of the same as polymerization initiator” (BASF COATINGS GMBH, priority 2020, dated 2026).

Experiments:
[1] = cited from earlier work
[2] = Dissolution of the initiator in the monomer solution (appearance of the resulted mixture); type: physicochemical
Description: A monomer solution was prepared by mixing 90 g of trimethylolpropane triacrylate (TMPTA) and 2 g of butyl glycol under stirring. 4 g of the copolymeric initiator system was added into the monomer solution and stirred under room temperature for 1 hour.
A monomer solution was prepared by mixing 90 g of TMPTA, 2 g of butyl glycol, 0.24 g of chloroform and 1.76 g solvent naphtha 160/180 under stirring. 1 g of benzopinacol fine powder was added into the monomer solution and stirred under room temperature for 1 hour.
A monomer solution was prepared by mixing 90 g of TMPTA and 10 g of butyl glycol under stirring. 1 g of fine benzopinacol fine powder was added into the monomer solution and stirred under room temperature for 1 hour.
A monomer solution was prepared by mixing 90 g of TMPTA and 10 g of butyl glycol by stirring. 1 g of the compound of formula (I) was added into the monomer solution and stirred under room temperature for 1 hour.

[3] = 1 g in 90 g TMPTA and 10 g butyl glycol, stirred at room temperature for 1 hour

SMILES | Solubility in common organic solvents [1] | Appearance of resulted mixture ([2]; 1 g fine powder in 90 g TMPTA, 2 g butyl glycol, 0.24 g chloroform and 1.76 g solvent naphtha 160/180, stirred at room temperature for 1 hour) | Appearance of resulted mixture [2, 3]
OC(c1ccccc1)(c1ccccc1)C(O)(c1ccccc1)c1ccccc1 [benzopinacol, 1,1,2,2-tetraphenyl-1,2-ethanediol] | very poor solubility | transparent liquid with suspended fine particles | transparent liquid with suspended fine particles
C=CCOC(=O)c1ccc(C(O)(c2ccccc2)C(O)(c2ccccc2)c2ccc(C(=O)OCC=C)cc2)cc1 (stereo not shown) [compound of formula (I), allyloxycarbonyl substituted benzopinacol of formula (I)] | – | – | transparent liquid with suspended fine particles
